{
  "source": "patent US7834148B2",
  "about": "“Protein phosphorylation imaging systems, methods of making phosphorylation imaging systems, and methods of use thereof” (Stanford University, priority 2006, dated 2010)",
  "key": {"[1]": {"test_system": "insulin receptor substrate 1 (IRS-1) phosphorylation", "assay": "Renilla Luciferase based IRS-1 phosphorylation sensor, luminometer assay in transfected CHO-IR cells", "type": "cell-based", "conditions": "24 h incubation, insulin 0, 25, 50 and 100 nM", "method": "FIG. 3 is a graph of the activation of the Renilla Luciferase based IRS-1 phosphorylation sensor as a function of Insulin concentration. Luminometer assay result of CHO-IR cells transfected with a phosphorylation sensor vector and assayed after 24 h of incubation with the addition of different concentrations of insulin (0, 25, 50 and 100 nM).\nThe IRS-1 phosphorylation sensor was tested based on split renilla and split Firefly Luciferase in transient transfection assays in cell culture with and without insulin. The single fusion vector (FIG. 2) was utilized with split Renilla Luciferase (split site 229, non-self complementing), with a semi-rigid peptide ((EAAAR)2 (SEQ ID NO: 36)) through screening of different peptides. The phosphorylation domain was the PTB peptide and was chosen to be an 13 amino acid peptide (SEQ ID NO: 28) including Y941 (tyrosine at position 941 of IRS-1). The substrate recognition domain was chosen to be the SH2 domain of PI3 Kinase. The vector constructed was transiently transfected in CHO-IR (expressing the insulin receptor) and 293T cells (not expressing the insulin receptor)."}, "[2]": {"test_system": "insulin receptor substrate 1 (IRS-1) phosphorylation", "assay": "Firefly Luciferase based IRS-1 phosphorylation sensor in transfected CHO-IR cells", "type": "cell-based", "conditions": "presence of insulin compared to no insulin exposure", "from_the_text": "FIG. 4 is a graph of the activation of the Firefly Luciferase based IRS-1 phosphorylation sensor as a function of Insulin exposure. Results of CHO-IR cells transfected and co-transfected with a self-complementing Firefly Luciferase based IRS-1 sensor used for studying insulin mediated IRS-1 phosphorylation. A two-vector system, single fusion vector with and without a semi-rigid linker were all compared. Greater absolute signal is seen with the fusion vector strategies.\nNext, constructs were made using self-complementing split fragments of Firefly Luciferase with a semi-rigid linker or without any linker, and these were compared with two separate vectors (non-fusion approach) in CHO-IR cells in the presence and absence of insulin (FIG. 3). The results of these studies show signal from all three vectors in the presence of insulin, but the highest absolute signal is from the two fusion vectors. Furthermore, for the two fusion vectors the background signal is lowest (prior to insulin exposure) when using the fusion vector with a semi-rigid linker.\nThe fusion strategy increases absolute signal as compared to using two separate vectors. Furthermore, using a semi-rigid linker decreases background signal in the fusion vector strategy. […]"}, "[3]": {"test_system": "insulin receptor substrate 1 (IRS-1) phosphorylation", "assay": "Bioluminescence CCD imaging of split Firefly Luciferase IRS-1 phosphorylation sensor, CHO-IR cells implanted in living mice", "type": "in vivo, nude mice", "conditions": "mice with implanted sensor-transfected CHO-IR cells, 4 IU s.c. in twelve hour intervals, imaged 24 hours later", "method": "FIG. 5 illustrates a bioluminescence CCD imaging of a split Firefly Luciferase based Insulin Receptor Substrate 1 (IRS-1) phosphorylation sensor in a living mouse.\nFour nude mice were implanted with 5 million CHO-IR cells transiently transfected with the fusion split firefly IRS-1 phosphorylation sensor with linker (EAAAR)2 and also with 5 million CHO-IR mock-transfected cells at two separate sites. The mice were imaged using D-Luciferin (3 mg i.p.) with a CCD camera. Two mice were then given 4 IU human long-acting insulin (s.c.) in twelve hour intervals, and two were not given insulin and all four were imaged again 24 hours later. Consistent results were obtained in the 2 mice in each group with exposure to insulin leading to an increase in signal (˜5-fold induction) and lack of insulin exposure leading to minimal change (˜1.3 fold induction)."}, "Akt kinase activity [4]": {"test_system": "Akt kinase activity", "assay": "Akt kinase sensor complemented FL activity, luminometer assay in transiently transfected 293T cells", "type": "cell-based, human", "method": "Next the hypothesis that activation of Akt activity would lead to increased phosphorylation of AKM and interaction with FHA2 in AS1T was tested, and subsequent inhibition of split FL complementation. 293T cells transiently transfected with AS1T and AS1A were treated with platelet derived growth factor (PDGF) for 30 minutes prior to analysis of FL activity.\nTo increase the dynamic range of AS1T for indirect monitoring of Akt kinase activity, the original FL fragments (NFL: 1-416/CFL: 398-550) were replaced with the optimal split FL sites (1-398/394-550) as AS2T. The corresponding FL fragments in AS1A were also replaced to create AS2A. 293T cells transiently transfected with AS2T or AS2A were treated with different concentrations of LY or carrier control for 24 hours prior to analysis of FL activity. […] To determine if the specificity of AS2 can be restored by using more rigid linkers, the flexible (G4S)3 linkers were replaced with (EAAAR)3 used for intramolecular folding sensors previously used to studying FRB/FKBP12 interactions. However, there was a loss of specificity in response to LY.\n(§1) Transfections were performed in 80% confluent 24 hr-old cultures of 293T and BT474 cells. For transient transfection, 250 ng/well of pcDNA molar equivalent of each AS1A and AS1T were used in 12-well tissue culture plates and 5 μl Lipofectamine 2000 was used per transfection following the manufacturer's instructions. 5 ng of pcDNA3.1(+) vector expressing full length RL was co-transfected per well to normalize for transfection efficiency. […]\n(§2) In brief, transfected cells were lysed in 200 μl of ice-cold 1× passive lysis buffer supplied by Promega and were shaken for 15 mins on ice. […] RL activity was determined as described for FL activity, except 0.5 μg of coelenterazine dissolved in 100 μl of was used. Protein concentrations in cell lysates were determined by Bradford Assay (Bio-Rad). FL activities were normalized for protein content and for transfection efficiency using RL activity and expressed as relative light units per microgram protein per minute of counting (RLU/μg protein/min)."}, "Akt kinase activity [5]": {"test_system": "Akt kinase activity", "assay": "Akt kinase sensor (AS1T/AS1A) complemented FL activity, luminometer assay in transiently transfected BT474 cells", "type": "cell-based, human", "conditions": "BT474 transiently transfected with AS1T, 24 hours, at 50 μM, relative to carrier control, p<0.05", "method": "FL activity was determined by luminometer assays using cell lysates and normalized for protein content and transfection efficiency. LY treatment of BT474 cells transiently transfected with AS1T led to a dose dependent increase in FL activity in (1.3-fold maximum increase, p<0.05 at 50 μM, relative to carrier control treated cells).\nas §1, §2"}, "Akt kinase activity [6]": {"test_system": "Akt kinase activity", "assay": "Akt kinase sensor complemented FL activity, bioluminescence imaging of intact 293T/AS1T and 293T/AS1A stable cells", "type": "cell-based, human", "conditions": "AS1T sensor", "method": "Complemented FL activity at each time point was determined by bioluminescence imaging of intact cells by addition of D-luciferin (FIG. 7a), prior to normalization for protein content (FIG. 7b).\nFL activities in intact cells were determined by bioluminescence imaging of intact cells as described above. Cells were lysed in 1% NP40 buffer (Cell Signaling, Beverly, Mass.) for 15 mins on ice followed by centrifugation at 1×10^4 g to remove cell debris. Protein concentrations were determined by Biorad protein Dc assay (Biorad). FL activities were normalized to protein content and then to that of carrier control treated cells and expressed as normalized FL activity±standard error of means (S.E.M.)"}},
  "data": [
    {"compound": "insulin", "values": [
      {"measurement": "complemented Renilla Luciferase activity", "setting": "[1]", "value": "concentration dependent increase"},
      {"measurement": "signal of split bioluminescence reporter IRS-1 sensor", "setting": "[2]", "value": "increased signal"},
      {"measurement": "increase in signal (induction)", "setting": "[3]", "value": "~5", "unit": "fold induction"}
    ]},
    {"compound": "platelet derived growth factor [PDGF]", "values": [
      {"measurement": "FL activity", "setting": "Akt kinase activity [4]; 293T transiently transfected with AS1A, 30 minutes treatment, p>0.05", "value": "did not significantly decrease"},
      {"measurement": "decrease in FL activity", "setting": "Akt kinase activity [4]; 293T transiently transfected with AS1T, 30 minutes treatment, vs carrier control, p<0.05", "value": 60, "unit": "%"}
    ]},
    {"compound": "O=c1cc(N2CCOCC2)oc2c(-c3ccccc3)cccc12", "note": "[LY, LY294002]", "values": [
      {"measurement": "maximum increase in FL activity", "setting": "Akt kinase activity [5]", "value": 1.3, "unit": "fold"},
      {"measurement": "increase in FL activity with AS2T or AS2A compared to AS1T or AS1A", "setting": "Akt kinase activity [4]; 293T transiently transfected, LY for 24 hours, unpublished data", "value": 2, "unit": "fold"},
      {"measurement": "maximum induction (dynamic range of AS1T)", "setting": "Akt kinase activity [6]", "value": 4, "unit": "fold"}
    ]}
  ]
}
